Reference: publication PMC12040169 (PLOS Biology, 2025)

Test: in vitro
Conditions: human, hela cells, % viability

SMILES	viability at 28.5 h, 10 µM [%]	viability at 28.5 h, 10 µM (bulk resorufin, single well) [%]
O=C(Nc1cc(N2CCNCC2)ncn1)c1cnc2ccccc2c1 [CBK004209T]	80.5	
O=C(CCOc1ccccc1)Nc1cc(N2CCNCC2)ncn1 [CBK004225T]	98.6	
O=C(Nc1cncc(N2CCNCC2)n1)c1coc2c1C(=O)CCC2 [CBK004229T]	96.8	
O=C(Nc1nccc(N2CCNCC2)n1)c1cccs1 [CBK004305T]	77.7	
Cc1ccc2[nH]cc(CCN)c2c1 [CBK004365]		103
O=C1NC(c2ccccc2)Cc2onc(-c3ccccc3)c21 (stereo not shown) [CBK004409]	90.9	
Cc1cc(Cl)cc(C)c1NS(=O)(=O)c1ccc(N2CCCNCC2)c2ccccc12 [CBK004433C]	97.2	
COC(=O)c1sccc1NS(=O)(=O)c1cc(F)c(Br)cc1F [CBK004492]	103	
COC(=O)c1sccc1NS(=O)(=O)c1ccc(C(F)(F)F)cc1[N+](=O)[O-] [CBK004510]	92.9	
Cc1ccc(S(=O)(=O)Nc2ccsc2C(=O)Nc2ccc(F)cc2)cc1 [CBK004571]	91	
Cc1ccc(S(=O)(=O)Nc2ccsc2C(=O)N2CCOCC2)cc1[N+](=O)[O-] [CBK004612]	81.7	
CCOC(=O)c1c(NS(=O)(=O)Cc2ccccc2[N+](=O)[O-])sc2c1CCCC2 [CBK004651]	95.8	
CCOC(=O)CSc1nnc(NS(=O)(=O)c2cccc(Cl)c2C)s1 [CBK004669]	104	
COC(=O)c1nc(Cl)c(Cl)nc1NS(=O)(=O)c1cccc(Cl)c1C [CBK004709]	91.8	
CCCC(=O)Nc1cccnc1N1CCNCC1 [CBK004732T]	94	
CCC#CC(=O)Nc1ccc(N2CCNCC2)nc1 [CBK004746T]	101	
O=C(Nc1ccc(N2CCNCC2)nc1)C1CCCO1 (stereo not shown) [CBK004748T]	85.7	
O=C(Nc1ccccc1N1CCNCC1)C1CCC1 [CBK004755T]	90.9	
O=C(Nc1cccc(N2CCNCC2)c1)C1CCCO1 (stereo not shown) [CBK004768T]	93.4	
COCCC(=O)Nc1cccc(N2CCNCC2)c1 [CBK004769T]	89.9	
CCOC(=O)NC(=O)c1cn(N2CCOCC2)c(=O)[nH]c1=O [CBK004845]	104	
CC(C)(C)C(=O)Nc1nnc(SCC(=O)N2CCc3ccccc32)s1 [CBK004889]	83.5	
C[C@@H](NC(=O)N(Cc1ccc([N+](=O)[O-])cc1)CC(C)(C)N)c1cccc2ccccc12 [CBK004921]	102	
CC(C)(N)CN(Cc1ccc(Cl)cc1)C(=O)Nc1ccccc1-c1ccccc1 [CBK004924]	105	
CN(C)C(=O)n1cc(Cl)c(-c2ccccc2)n1 [CBK004985]	97	

SMILES	viability at 28.5 h, 10 µM [%]	viability at 28.5 h, 10 µM (bulk resorufin, single well) [%]
S=C(NCC1CCN(C(=S)NC2CCCCC2)CC1)NC1CCCCC1 [CBK004987]	87.7	
CC1CN(C(=S)Nc2ccc(NC(=S)N3CC(C)OC(C)C3)cc2)CC(C)O1 (stereo not shown) [CBK004991]	78.9	
CC1CN(C(=S)Nc2ccc3ccccc3c2)CC(C)O1 (stereo not shown) [CBK004993]	102	
COc1cc(Cc2c(OCCN(C)C)nc3ccccn3c2=O)cc(OC)c1OC [CBK005004C]	99.9	
CCN(CC)S(=O)(=O)c1cc(S(=O)(=O)N(CC)CC)c2cccc3c2c1NC(=O)O3 [CBK005022]	85.3	
Cc1cn(C(C)(C)C(=O)N2CCOCC2)nc1-c1ccccc1Cl [CBK005206]	85.9	
Cc1ccc(NS(=O)(=O)N(C)C)c(C)c1 [CBK005246]	122	
c1ccc2c(c1)OCc1nnc(CCN3CCCCC3)n1-2 [CBK005285]	95.2	
O=C1NC(=O)C(c2ccccc2)(c2ccccc2)N1 [CBK005292]	108	
CCOC(=O)N1CCCC(=O)c2c(C(=O)O)cn(C)c21 [CBK005301]	86.4	
CC(C)CC1C(=O)NCCN1Cc1ccccc1 (stereo not shown) [CBK005336]	92	
COc1ccc(OC)c(NS(=O)(=O)N(C)C)c1 [CBK005362]	94.1	
O=c1c(I)coc2ccc(Cl)cc12 [CBK005364]	93.9	
S=C(Nc1ccccc1)c1ccccc1 [CBK005397]	100	
COc1ccccc1NC(=O)N(CC(C)C)CC(C)C [CBK005456]	102	
Cc1cc(C)[n+](-c2ccccc2O)c(C)c1 [CBK005458G]	116	
Cn1ccnc1[S+]([O-])Cc1nc2ccccc2s1 (stereo not shown) [CBK005549]	91.5	
Cc1nn(Cc2nnc(SCC(=O)C(C)(C)C)o2)c(C)c1Br [CBK005646]	92.1	
CCOC(=O)C1=C(Nc2ccc(O)cc2)C(=O)N(C(C)(C)C)C1 [CBK005677]	83	
CSCCN(CC(=O)O)Cc1ccccc1 [CBK005712]	91.1	
COC(=O)c1sccc1-c1ccc(C2C3=C(CCCC3=O)NC3=C2C(=O)CCC3)o1 [CBK005748]	92.3	
COc1ccc(-c2c(C)nn(-c3ccc(Cl)nn3)c2C)c(C(=O)O)c1 [CBK005774]	107	
CN(C)CC(c1ccccc1)c1nnc2n1-c1ccc(S(C)(=O)=O)cc1C(c1ccccc1)=NC2 (stereo not shown) [CBK005856G]	102	
CN(C)C[C@@H]1Cc2cccc3cccc(c23)[C@@H]1O [CBK005877C]	111	
O/N=C/Nc1nccc(-c2cc(Cl)sc2Cl)n1 [CBK005934]	87.5	

SMILES	viability at 28.5 h, 10 µM [%]	viability at 28.5 h, 10 µM (bulk resorufin, single well) [%]
Cc1nc(C)c(-c2cnc(NS(=O)(=O)c3ccc(Cl)cc3)nc2)s1 [CBK005935]	86.9	
CSc1nc(N)n(-c2cc(C(F)(F)F)cc(C)n2)n1 [CBK005941]	89.9	
COc1ccc(OCC(F)(F)F)c(C(=O)N2CCSCC2)c1 [CBK005950]	83.7	
CCN(CC)CC(O)Cn1ccc(-c2cccs2)n1 (stereo not shown) [CBK005967]	88.7	
Cn1c2c(ccc1=O)CCCCC2 [CBK005987]	92	
O=c1cc(O)c2c(=O)n(-c3ccccc3)c(-c3ccccc3)cc2o1 [CBK006116]	89.1	
Nc1nonc1-c1cccnc1 [CBK006120]	105	
CC(C)(C)SCC(=O)c1ccc2c(c1)CCC(=O)N2 [CBK006168]	104	
CC1CCN(C(=S)Nc2ccccc2)CC(C)(C)C1 (stereo not shown) [CBK006185]	93.9	
Clc1cc(-c2cnc3ccccc3n2)c(Cl)s1 [CBK006186]	85.4	
O=C1COCC(=O)N1c1ccccn1 [CBK006233]	89.2	
OC1(C(F)(F)F)C=C(c2cccs2)ON1 (stereo not shown) [CBK006243]	89	
Nc1ccccc1Sc1nccc(C(F)(F)F)n1 [CBK006263]	94.5	
CCOC(=O)N/N=C1\CCSc2sccc21 [CBK006300]	110	
FC(F)(F)c1nnc(-c2cc3sccc3s2)o1 [CBK006303]	96.4	
CCCc1c(C(=O)NC2CC2)cnn1-c1ccc(Cl)cc1 [CBK006334]	112	
OCC12COC3c4ccccc4C(OC1)N32 (stereo not shown) [CBK006347]	89.5	
COC(=O)c1sc(N2CCOCC2)c(C#N)c1N [CBK006430]	101	
CNC(=S)N(CCS(=O)(=O)c1ccc(Cl)cc1)Cc1cccs1 [CBK006431]	97.5	
O=c1ccccn1COCc1ccccc1 [CBK006438]	103	
Cc1c(C(=O)N2CCCCC2)sc2nc(C(F)(F)F)nn12 [CBK006455]	105	
Cc1c2c(nn1C)CSc1ccccc1C2=O [CBK006517]	92.8	
S=C1NC2(CCCCC2)NC12CCCCC2 [CBK006533]	98.5	
COc1ccc(C)cc1NC(=O)Nc1nc(C)cs1 [CBK006565]	83.3	
Cc1ccc2c(c1)N(CCO)C(C)(C)CC2C (stereo not shown) [CBK006567]	92.1	

SMILES	viability at 28.5 h, 10 µM [%]	viability at 28.5 h, 10 µM (bulk resorufin, single well) [%]
CNC(=O)C1/C(=N\O)c2ccccc2N1C(C)=O (stereo not shown) [CBK006569]	114	
COc1ccc(-c2cc(=O)n3cc[nH]c3n2)cc1 [CBK006659]	87.6	
CCCCC(O)C[N+]1(C)CCC(c2ccccc2)CC1 (stereo not shown) [CBK006696I]	101	
CC(C)(C)S(=O)(=O)c1ccc2nc3c(n2c1)CCCC3 [CBK006753]	94.9	
N/C(=N\c1nonc1N)NC(=O)c1ccccc1 [CBK006756]	71.5	
N/C(CSc1cccc2c1CCCC2)=N\O [CBK006787C]	101	
Cn1c(C(C)(C)C)cs/c1=N\NS(=O)(=O)c1ccccc1 [CBK006830B]	110	
CC(C)(C)c1cc(NC(=O)C(C)(C)S(=O)(=O)c2ccc(C(F)(F)F)cn2)no1 [CBK006849]	113	
COc1ccc(C(=O)n2nc(SC)nc2N)cc1 [CBK006853]	100	
CCCCNC(=O)N(O)C1N(C)C(=S)SC1(C)C (stereo not shown) [CBK006880]	91.2	
Cc1cc(N(C)C)nc(SCc2n[nH]c(=S)o2)n1 [CBK006887]	99.8	
CC(C)(C)C(=O)CSc1nnc(-c2ccccn2)s1 [CBK006894]	91.9	
CC1SC(c2cc3ccccc3o2)N(c2ccc(F)cc2F)C1=O (stereo not shown) [CBK006917]	107	
CCOC(=O)CSC/C(=N/Nc1ccccc1)c1cccs1 [CBK006956]	102	
CNC(=O)Nc1cc(C(O)(C(F)(F)F)C(F)(F)F)ccc1C [CBK006970]	113	
CC1(C)CCN(Cc2ccccc2)C1CC#N (stereo not shown) [CBK006978C]	102	
OCCCc1[nH]nc(-c2ccc(Cl)cc2)c1Br [CBK006993]	59.2	
CCOC(=O)CSc1nc(-c2ccc(C)cc2)cs1 [CBK007039]	90.4	
CCCCCOc1ccc(-c2ccc(Cl)nn2)cc1 [CBK007044]	83.7	
COC(=O)CSc1nnc(CSc2cc(C)nc(N3CCOCC3)n2)o1 [CBK007059]	96.1	
C/C(=N/NC(N)=S)c1ccccc1OCC(=O)O [CBK007123]	97.9	
O=C1C=C(N2CCC(CCC3CCN(C4=CC(=O)CCC4)CC3)CC2)CCC1 [CBK007126]	105	
